Measurements taken from patent US20060025483A1, “(-)-Hydroxycitric acid for protection against soft tissue and arterial calcification” (priority 2004, published 2006).

Key:
[1] = system: systolic blood pressure; experiment: systolic blood pressure (SBP) by tail plethysmography, rats on 30% fat / sucrose diet; type: in vivo, Sprague-Dawley Rats; conditions: for lowering of SBP: end of 8 weeks
Source text: (§1) A known effect of ACE inhibitors is a reduction in elevated systolic blood pressure. To test this, the following protocol was employed: Sprague-Dawley Rats (SD), approximately 8 weeks of age were obtained. Six groups of eight male SD received the same standard rat chow manufactured to specifications. The special diets derived 30% of calories from fats (one half from lard and one half from corn oil), 50% from carbohydrates, and 20% from proteins. Twenty percent of dietary calories was derived from sucrose and the preponderance of the remaining carbohydrate calories was derived from dextrin. During weekdays (M-F), each group was gavaged twice daily with a solution containing a commercial source of potassium hydroxycitrate (KHCA), a commercial source of potassium-calcium hydroxycitrate (KCaHCA), or a pre-commercial non-salt source of potassium-magnesium hydroxycitrate (KMgHCA, listed as KMgHCA L-Low, M-Intermediate or H-High depending upon the dose). Over the weekends (S-S), a similar quantity of the weekday daily dose was added to twenty grams of food, that is, an amount of food estimated to be close to the daily intake of the animals. At initiation of study and four weeks, and eight weeks later, bloods were drawn from all SD for routine blood chemistries. Body weight (BW) was measured weekly and systolic blood pressure (SBP) was measured every two weeks.
The HCA dosages in the arms varied. The dosage used in the KHCA arm was extrapolated from the recommended 1,500 mg HCA per day for humans consuming a normal diet (i.e., ≧30% calories derived from fats) advocated by a commercial seller of KHCA and claimed to have produced acceptable clinical results. The approximate equivalent for the rat model is 35.4 mg HCA per day, which we increased to 38.4 mg HCA per day for convenience in employing a 48% HCA potassium salt and to remain safely on the high side in practice. For the sake of comparison, a commercial KCaHCA salt (60% HCA) was chosen and delivered at an HCA dosage level of 48 mg per day, which slightly exceeded the lowest dosage of HCA found to be efficacious for inhibition of weight gain in rats in the early pharmaceutical trials (45.4 mg/day) using pure trisodium hydroxycitrate and a very low fat diet. The design thus utilized a realistic diet with rough equivalents of the HCA dosages claimed to be effective in both the human and rat models.
The experimental KMgHCA dosings varied considerably from that of the other two salts. […] As a result, the recalculated HCA doses for the experimental compound were a low dose (KMgHCA L) of 14 mg, an intermediate dose (KMgHCA M) of 28 mg and a high dose (KMgHCA H) of 84 mg per day. The difficulty in calculating the HCA content in this case is not unique inasmuch as there is as of yet no universally accepted method for calculating the HCA content of the various salts. Again, preparations yielded the equivalent of 48 mg HCA per day from KCaHCA and 38.4 mg HCA per day from KHCA.
(§2) Systolic Blood Pressure (SBP): SBP was estimated by tail plethysmography in unanesthetized rats after a brief warming period. Readings were taken approximately one minute apart. To be accepted, SBP measurements had to be virtually stable for a minimum of three consecutive readings.
(§3) Statistical Analyses: Results are presented as mean±SEM. Many statistics were performed by one-way analysis of variance (ANOVA). SBP and BW were examined by two-way analyses of variance (one factor being dietary group and the second factor being time of examination). Where a significant effect of diet was detected by ANOVA (p<0.05), the Dunnett t test was used to establish which differences between means reached statistical significance (p<0.05). If a Student's t test was employed, this is noted.

[2] = system: insulin; experiment: circulating insulin concentrations; type: in vivo, Sprague-Dawley Rats; conditions: for average insulin concentrations vs control: not significant using ANOVA
Source text: as §1, §3

[3] = system: systolic blood pressure; experiment: earlier study of SBP not described here; type: in vivo; conditions: 120 mg HCA per day
[4] = system: C-reactive protein; experiment: serum C-reactive protein, rats on 30% fat / simple sugar diet; type: in vivo; design: key to CRP Modulation: ** = significant; conditions: for Δ OD units after 4 wks: serum CRP, 1 unit equals 50 picograms/mL
Source text: (§4) To test the properties of HCA in various forms under conditions similar to those found in human clinical trials, the inventor arranged for rats to be fed a diet in which 30% of the calories were obtained from fat under standard conditions, with a further approximately 20% of the calories being supplied as simple sugars. Such a dietary combination of fat and simple sugars is noted as promoting a variety of metabolic imbalances and dysfunctions. The rats were intubated twice daily with one of five HCA salts or placebo. On weekends, the HCA was added to the food at an approprate dosage. The amount of HCA in each arm of 8 animals was based on the minimum dosage which had been found effective in the form of the pure trisodium salt of HCA in tests by Hoffmann-La Roche in animals ingesting a 70% glucose diet, i.e., 0.33 mmoles/kg body weight HCA given twice per day. The HCA salts used were these: KCaHCA=a mixed potassium and calcium or double metal HCA salt commercially marketed as being entirely water soluble and of relatively high purity; KHCA=a relatively clean commercial potassium salt of HCA with a good mineral ligand attachment supplying 4467 mg potassium/100 grams of material; KMgHCA=three different dosage levels of an experimental potassium and magnesium salt with special characteristics, but suspected of being relatively unstable when exposed to stomach acid. The KCaHCA and KHCA salts were 60% HCA delivered at the rate of approximately 76 mg/day. The KMgHCA salts were delivered at the rate of 76 mg/day (r), 38 mg/day (l) and 228 mg/day (h), but due to initial miscalculations of the water of crystallization, this salt was only 45% HCA rather than 60%. The proper dosage for the KMgHCA(r) should have been 100 mg/day; the half dose (I) should have been 50 mg/day, and the triple dose (h) should have been 300 mg/day to match the commercial salts.
Tests were performed for C-reactive protein. Data was obtained for the animals at start and then at week 4 based on serum. Optical Density (OD) readings in the test kit used were 1 unit equals 50 picograms/mL. The delta changes over the 4 weeks for each arm vs control are shown.

[5] = body weight in the C-reactive protein study; type: in vivo, rats; conditions: by week 6; salt 76 mg/day
Source text: as §4, with “The KCaHCA and KHCA salts were 60% HCA delivered at the rate of approximately 76 mg/day. The KMgHCA salts were delivered at the rate of 76 mg/day (r), 38 mg/day (l) and 228 mg/day (h), but due to initial miscalculations of the water of crystallization, this salt was only 45% HCA rather than 60%. The proper dosage for the KMgHCA(r) should have been 100 mg/day; the half dose (I) should have been 50 mg/day, and the triple dose (h) should have been 300 mg/day to match the commercial salts.” left out

[6] = system: systolic blood pressure; experiment: SBP in SHR on rat chow / table sugar diet; type: in vivo, Spontaneously hypertensive rats (SHR); conditions: 100 mg HCA per day in food; over three weeks
Method: as §2
(§5) Spontaneously hypertensive rats (SHR) were placed on a diet composed of regular rat chow (60% w/w) and table sugar (40% w/w). This diet reliably elevates blood pressure in this animal model. One group received 100 mg HCA per day in the form of a new potassium-magnesium hydroxycitrate (different from that used in Example 1) via an added 5 g HCA per kg of food mix. Systolic blood pressure and body weight were tested as in Example 1 on a weekly basis.

[7] = body weight in SHR on rat chow / table sugar diet; type: in vivo, Spontaneously hypertensive rats (SHR); conditions: 100 mg HCA per day in food; over three weeks
Method: as §5

[8] = glucose tolerance test with 0.1 unit regular insulin injected along with glucose; type: in vivo, Spontaneously hypertensive rats (SHR); conditions: at 7.5 minutes; 100 mg HCA per day in food
Method: This was viewed as likely positive in that rats gain weight steadily as long as they remain in good health and the SHR at middle age, as used here, lives a relatively short life and its health deteriorates as its blood pressure rises. […] A glucose tolerance test was administered in which 0.1 unit of regular insulin was injected along with glucose. […] This finding indicates increased insulin sensitivity. (FIG. 6)

[9] = system: TNF-α; experiment: TNF-α, rats on 30% fat / simple sugar diet; type: in vivo; conditions: eight weeks
Source text: as §4, with “The KCaHCA and KHCA salts were 60% HCA delivered at the rate of approximately 76 mg/day. The KMgHCA salts were delivered at the rate of 76 mg/day (r), 38 mg/day (l) and 228 mg/day (h), but due to initial miscalculations of the water of crystallization, this salt was only 45% HCA rather than 60%. The proper dosage for the KMgHCA(r) should have been 100 mg/day; the half dose (I) should have been 50 mg/day, and the triple dose (h) should have been 300 mg/day to match the commercial salts.” left out

[10] = system: ACE system; experiment: response of SBP to losartan challenge; type: in vivo, Spontaneously hypertensive rats (SHR); conditions: at 6 hours; control SHR without HCA
Source text: Many factors can positively influence blood pressure, e.g., diuretics, antioxidants, regulators of sympathetic/parasympathetic tone, compounds that improve insulin sensitivity and so forth. Therefore, losartan, an angiotensin-2 receptor blocker, was utilized to discover whether the ACE system was involved in the results discussed in Example 1.
as §5
When losartan was injected, the SBP of both groups decreased. At 6 hours, the SBP were essentially the same. […] Thus, HCA appears to decrease angiotensin-2 in rats and to lower elevated SBP. Although insulin regulation likely is a factor in the blood pressure modulating effect of HCA, this evidence argues that inhibition of ACE is also important. […]

[11] = pilot open clinical weight loss trial with extremely obese patients; type: in vivo, human
Source text: A multi-week pilot open clinical weight loss trial with extremely obese patients was planned to gauge the effects of a pouch delivery form of a potassium salt of (−)-hydroxycitrate under the normal circumstances faced in clinical practice with this patient population. Fourteen patients were enrolled, three of whom were diabetics on medications and several others who were suspected of suffering from insulin resistance. The patients ingested 3-4 grams of HCA per day in two divided doses. Aside from being informed that they must eat a carbohydrate-containing meal within one hour of taking the HCA and that they should avoid eating late in the day, they were not instructed to follow any special diet or exercise plan outside their normal habits and no caloric restriction was imposed. This particular form of potassium (−)-hydroxycitrate delivery typically was mixed into water or juice and consumed at mid-morning and mid-afternoon. The delivery was a water-soluble immediate release form. […] A number of patients continued on the program for 6 weeks. However, comparative data was good for only 3 weeks because two of the diagnosed diabetics experienced hypoglycemic reactions. Several other patients experienced good appetite suppression, yet also complained off episodic tiredness at the beginning of the program, a sign of low blood sugar. Two patients subsequently were placed on phentermine. […] The average weight loss over the 3 week period for these patients was approximately 3 pounds per person per week. […] At therapeutically effective dosages, HCA probably should be used with diabetic populations only under a physician's care.

[12] = rats; diet of 70% glucose and 1% fat; cited from earlier work

SMILES: O=C([O-])CC(O)(C(=O)[O-])C(O)C(=O)[O-].[Ca+2].[K+] (stereo not drawn) [KCaHCA, potassium-calcium hydroxycitrate]
- SBP compared to control ([1]; end of eight weeks, 48 mg HCA per day): significant decreases in SBP compared to control
- trend of circulating insulin ([2]; 48 mg HCA per day): did not show a trend toward lower circulating insulin
- SBP [3]: decrease in SBP
- change in CRP compared with control, significance ([4]; 4 wks, salt 76 mg/day): failed to yield significant results
- Δ OD units after 4 wks ([4]; salt 76 mg/day): 56 OD units
- body weight, trend difference from control [5]: greatest trend differences

SMILES: O=C([O-])CC(O)(C(=O)[O-])C(O)C(=O)[O-].[K+].[K+].[K+] (stereo not drawn) [KHCA, potassium hydroxycitrate]
- SBP compared to control ([1]; end of eight weeks, 38.4 mg HCA per day): significant decreases in SBP compared to control
- insulin, control versus arm alone, Student's t test ([2]; 38.4 mg HCA per day): showed significance
- average insulin concentrations vs control ([2]; 38.4 mg HCA per day): lower
- CRP Modulation ([4]; 4 wks, salt 76 mg/day): **
- Δ OD units after 4 wks ([4]; salt 76 mg/day): −155 OD units
- body weight, trend difference from control [5]: greatest trend differences

SMILES: O=C([O-])CC(O)(C(=O)[O-])C(O)C(=O)[O-].[K+].[Mg+2] (stereo not drawn) [KMgHCA, potassium-magnesium hydroxycitrate]
- SBP compared to control ([1]; course of study, low dose 14 mg HCA per day): below the threshold for effect
- lowering of SBP ([1]; high dose 84 mg HCA per day): over 10 mm Hg
- lowering of SBP ([1]; intermediate dose 28 mg HCA per day): over 10 mm Hg
- SBP compared to control ([1]; end of eight weeks, high dose 84 mg HCA per day): significant decreases in SBP compared to control
- SBP compared to control ([1]; end of eight weeks, intermediate dose 28 mg HCA per day): significant decreases in SBP compared to control
- insulin, control versus arm alone, Student's t test ([2]; 84 mg HCA per day): at the margin of significance
- average insulin concentrations vs control ([2]; all KMgHCA groups (14, 28, 84 mg HCA per day)): lower
- SBP change from baseline [6]: decrease in SBP from baseline
- body weight [7]: trend for an increase in body weight
- rise in glucose appearance in bloodstream [8]: significantly lesser rise in glucose appearance in bloodstream
- CRP Modulation ([4]; 4 wks, salt 38 mg/day): **
- CRP Modulation ([4]; 4 wks, salt 76 mg/day): **
- CRP Modulation ([4]; 4 wks, salt 228 mg/day): **
- Δ OD units after 4 wks ([4]; salt 38 mg/day): 33 OD units
- Δ OD units after 4 wks ([4]; salt 76 mg/day): −145 OD units
- Δ OD units after 4 wks ([4]; salt 228 mg/day): −11.3 OD units
- TNF-α, simple t test versus control ([9]; intermediate dose): significance
- TNF-α, simple t test versus control ([9]; low dose): significance

SMILES: CCCCc1nc(Cl)c(CO)n1Cc1ccc(-c2ccccc2-c2nn[nH]n2)cc1 [losartan, reference compound]
- decrease in SBP after losartan injection [10]: −50±6.1

SMILES: O=C([O-])CC(O)(C(=O)[O-])C(O)C(=O)[O-].[K+].[K+].[K+] (stereo not drawn) [potassium (−)-hydroxycitrate]
- average weight loss ([11]; 3-4 grams of HCA per day in two divided doses, over the 3 week period): approximately 3 pounds per person per week
- tolerability ([11]; apart from inconvenience and poor taste): no other issues of tolerability
- hypoglycemic effect ([11]; immediate release format, diabetics, 3-4 grams of HCA per day): strong hypoglycemic effect in diabetics
- weight loss ([11]; one patient, over 10 weeks): 32 pounds

SMILES: O=C([O-])CC(O)(C(=O)[O-])C(O)C(=O)[O-].[Na+].[Na+].[Na+] (stereo not drawn) [trisodium hydroxycitrate]
- lowest dose shown to be efficacious in reducing weight gain [12]: 0.33 mmol/kg twice a day
